Assay results reported in ChEMBL document CHEMBL1140941 (J Med Chem, 2009).
Calls of active or inactive are those of the source. No cut-off for these calls is given here.

Target: T1, Androgen receptor (Homo sapiens) (UniProt P10275)
T1 sequence (whole entry): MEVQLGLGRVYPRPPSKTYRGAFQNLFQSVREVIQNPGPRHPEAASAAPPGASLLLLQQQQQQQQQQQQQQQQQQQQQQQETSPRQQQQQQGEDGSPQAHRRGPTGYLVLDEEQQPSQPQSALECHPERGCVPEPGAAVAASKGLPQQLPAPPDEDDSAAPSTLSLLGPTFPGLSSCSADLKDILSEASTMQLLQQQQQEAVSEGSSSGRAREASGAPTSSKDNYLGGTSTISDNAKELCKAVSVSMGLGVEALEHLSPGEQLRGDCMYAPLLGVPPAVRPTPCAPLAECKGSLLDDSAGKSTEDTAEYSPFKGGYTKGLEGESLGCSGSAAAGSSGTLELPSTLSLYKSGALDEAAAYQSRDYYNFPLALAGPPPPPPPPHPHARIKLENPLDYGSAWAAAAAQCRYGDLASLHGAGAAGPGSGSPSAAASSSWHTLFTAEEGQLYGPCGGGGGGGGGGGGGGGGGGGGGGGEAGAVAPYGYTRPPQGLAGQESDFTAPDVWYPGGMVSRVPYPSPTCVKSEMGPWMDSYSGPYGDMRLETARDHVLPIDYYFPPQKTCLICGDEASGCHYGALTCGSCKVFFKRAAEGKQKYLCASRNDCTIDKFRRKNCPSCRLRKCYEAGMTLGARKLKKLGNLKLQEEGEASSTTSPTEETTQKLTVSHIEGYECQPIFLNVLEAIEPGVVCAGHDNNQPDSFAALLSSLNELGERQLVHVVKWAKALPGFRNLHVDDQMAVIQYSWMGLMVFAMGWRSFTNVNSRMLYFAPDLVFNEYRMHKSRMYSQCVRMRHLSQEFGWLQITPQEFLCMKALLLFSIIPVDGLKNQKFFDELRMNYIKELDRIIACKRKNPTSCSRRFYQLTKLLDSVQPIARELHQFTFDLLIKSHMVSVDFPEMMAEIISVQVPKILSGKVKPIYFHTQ
Experiment: Agonist activity at human gal-AR expressed in african green monkey CV1 cells co-expressing MH100 with pGRIP1 co-factor up to 10 uM by luciferase reporter gene assay relative to control
Format: functional, cell-based
Details: CV-1

## CC(C)OC(=O)C1=CN(C(=O)c2ccc(F)c(F)c2)CC(C)(C)c2c1[nH]c1ccccc21 [TUROFEXORATE ISOPROPYL]
  Activity: inactive
